Test results reported in patent US9073902B2 (BioEnergenix, LLC, priority 2011, dated 2015).
pIC50: −log10 of the molar value.

Target: T1, hPASK (Homo sapiens, UniProt Q96RG2)
T1 construct: IC50 Kinase Domain; purchased Invitrogen
Test: PAS Kinase FRET Assay (Biochemical Assay for hPASK Activity)
Details: TR-FRET (665 nm/615 nm), 2 hours at 25° C.; read-out: IC50 Kinase Domain
Text: Biochemical Assay for hPASK Activity
The aim of the FRET assay is to determine the inhibition potential of test compounds on targeted kinase. This assay platform provides a homogenous screening method for measuring kinase activity by quantitating the amount of phospho-substrate in solution following a kinase reaction.
In the presence of kinase and ATP, the Ulight-peptide is phosphorylated and captured by an anti-phospho-substrate antibody, which brings the Eu chelate donor and Ulight acceptor dyes into close proximity. Upon excitation at 340 nm, the Eu chelate transfers its energy to the Ulight dye, resulting in a fluorescent light emission at 665 nm.
Titration of kinase at 1 mM ATP was achieved via the following protocol. After making serial three-fold dilutions of PASK (Invitrogen) in reaction buffer across the plate; 5 μl of kinase dilution and 5 μl substrate/ATP mix were added to the wells of the white Optiplate-384 (PerkinElmer). The contents of the plate were and incubated at RT for 1 h. The reaction was stopped by adding 5 μl of stop solution to each test well followed by mixing and incubation at RT for 10 minutes. 5 μl of detection mix (detection antibody diluted in detection buffer) was added; the contents of the plate were mixed and then incubated in the dark for 1 hour at RT. The signal was recorded at TR-FRET mode (665 nm/615 nm). The results were graphed to calculate the EC50.
Titration of ATP at the EC50 concentration of kinase to determine ATP Km, app. was performed using the following method. After making serial dilutions of ATP (Invitrogen), 5 μl of ATP dilution and 5 μl substrate/kinase mix were added to the wells of the white Optiplate-384 (PerkinElmer). The contents of the plate were and incubated at RT for 1 h. The reaction was stopped by adding 5 μl of stop solution to each test well followed by mixing and incubation at RT for 10 minutes. 5 μl of detection mix (detection antibody diluted in detection buffer) was added; the contents of the plate were mixed and then incubated in the dark for 1 hour at RT. The signal was recorded at TR-FRET mode (665 nm/615 nm). The results were graphed to calculate the EC50 as the ATP Km,app.
Compound screening was done via the following method. 10 mM stock solution of test compound in DMSO was prepared by dissolving test compound in DMSO at RT for 1 hour, and then sonicating at 100% output for 8 minutes. If compound is not soluble under this condition, it was diluted to 3 mM. Kinase reaction buffer was prepared containing 10 mM MgCl2, 50 mM HEPES, 1 mM EGTA, 0.01% TWEEN-20, 2 mM DTT. Serial dilutions of the test compounds were prepared at 4× final assay concentrations using Freedom EVO200® dispensing system as follows: 12×10^−5 M, 4×10^−5M, 1.33×10^−5M, 4.44×10^−6M, 1.48×10^−6M, 4.92×10^−7M, 1.65×10^−7M, 5.48×10^−7 M, 1.82×10^−8 M, 6.09×10^−9, 2.03×10^−9 M. Test compounds (2.5 μl at 4× the final assay concentration) was added to wells using Freedom EVO200® dispensing system. As a positive control, 2.5 μl of positive compound was added to assay wells, and 2.5 μl of DMSO to assay wells as vehicle control. Kinase solution was prepared in reaction buffer at 2× final assay concentration. Kinase solution (5 μl) was added to each well of the assay plate. The substrate and ATP solution was prepared in kinase reaction buffer at 4× final assay concentration. The kinase reaction was started by adding 2.5 μl of substrate+ATP mix solution to each well of the assay plate. The plate is mixed on a plate shaker; then covered and allowed to react for 2 hours in the dark at 25° C. without shaking. The reaction was stopped by adding 5 μl of stop solution to each test well followed by mixing and incubation at RT for 10 minutes in the dark. 5 μl of detection mix (detection antibody diluted in detection buffer) was added; the contents of the plate were mixed and then incubated in the dark for 1 hour at RT. The signal was recorded at TR-FRET mode (665 nm/615 nm).

T1 sequence (Q96RG2 999-1251 limits assumed): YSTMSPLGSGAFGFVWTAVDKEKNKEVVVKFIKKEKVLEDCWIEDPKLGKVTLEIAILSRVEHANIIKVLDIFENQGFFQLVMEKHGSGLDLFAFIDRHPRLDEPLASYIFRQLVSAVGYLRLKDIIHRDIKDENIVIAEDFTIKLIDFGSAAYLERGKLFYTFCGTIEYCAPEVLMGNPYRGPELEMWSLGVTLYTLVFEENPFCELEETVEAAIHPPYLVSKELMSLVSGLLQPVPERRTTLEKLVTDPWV

| SMILES | pIC50 |
| --- | --- |
| Cc1cc2cc(-c3nc4ccc(C(=O)O)cc4nc3N3CCCc4cc(F)ccc43)ccc2[nH]1 [Example 20, 3-(6-Fluoro-1,2,3,4-tetrahydroquinolin-1-yl)-2-(2-methyl-1H-indol-5-yl)quinoxaline-6-carboxylic acid] | ≥ 5.00 |
| N#Cc1ccc2c(c1)CCCN2c1nc2cc(C(=O)O)ccc2nc1-c1ccc(F)cc1 [Example 12, 3-(6-Cyano-1,2,3,4-tetrahydroquinolin-1-yl)-2-(4-fluorophenyl)quinoxaline-6-carboxylic acid] | ≥ 5.00 |
| O=C(O)c1ccc2nc(-c3ccc(F)cc3)c(N3CCCc4cc(Br)ccc43)nc2c1 [Example 13] | ≥ 5.00 |
| O=C(O)c1ccc2[nH]c(=O)c(N3CCCc4ccccc43)nc2c1 [Example 10, 2-Oxo-3-(1,2,3,4-tetrahydroquinolin-1-yl)-1,2-dihydroquinoxaline-6-carboxylic acid] | < 5.00 |
| O=C(O)c1ccc2nc(-c3ccc(F)cc3)c(N3CCCc4ccccc43)nc2c1 [Example 1, 3-(1,2,3,4-Tetrahydroquinolin-1(2H)-yl)-2-(4-fluorophenyl)quinoxaline-6-carboxylic acid] | ≥ 5.00 |
| COc1ccc2c(c1)CCCN2c1nc2cc(C(=O)O)ccc2nc1-c1cc2cc(Cl)ccc2o1 [Example 9, 2-(5-Chloro-1-benzofuran-2-yl)-3-(6-methoxy-1,2,3,4-tetrahydroquinolin-1-yl)quinoxaline-6-carboxylic acid] | ≥ 5.00 |
| O=C(O)c1ccc2nc(-c3ccc4[nH]ncc4c3)c(N3CCCc4cc(F)ccc43)nc2c1 [Example 21, 3-(6-Fluoro-1,2,3,4-tetrahydroquinolin-1-yl)-2-(1H-indazol-5-yl)quinoxaline-6-carboxylic acid] | ≥ 5.00 |
| O=C(O)c1ccc2nc(-c3cc4cc(Cl)ccc4o3)c(N3CCCc4cc(F)ccc43)nc2c1 [Example 8, 2-(5-Chloro-1-benzofuran-2-yl)-3-(6-fluoro-1,2,3,4-tetrahydroquinolin-1-yl)quinoxaline-6-carboxylic acid] | ≥ 5.00 |
| O=C(O)c1ccc2nc(-c3ccc(F)cc3)c(N3CCCc4cc(C(=O)N5CCOCC5)ccc43)nc2c1 [Example 15, 2-(4-Fluorophenyl)-3-[6-[(morpholin-4-yl)carbonyl]-1,2,3,4-tetrahydroquinolin-1-yl]quinoxaline-6-carboxylic acid] | ≥ 5.00 |
| O=C(O)c1ccc2nc(-c3ccc(F)cc3)c(N3CCCc4cc(F)ccc43)nc2c1 [Example 6, 3-(6-Fluoro-1,2,3,4-tetrahydroquinolin-1-yl)-2-(4-fluorophenyl)quinoxaline-6-carboxylic acid] | ≥ 5.00 |
| O=C(O)c1ccc2nc(-c3ccc4c(c3)OCCO4)c(N3CCCc4ccccc43)nc2c1 [Example 4, 2-(2,3-Dihydro-1,4-benzodioxin-6-yl)-3-(1,2,3,4-tetrahydroquinolin-1-yl)quinoxaline-6-carboxylic acid] | ≥ 5.00 |
| O=C(O)c1ccc2nc(-c3ccc(F)cc3)c(N3CCCc4cc5c(cc43)OCO5)nc2c1 [Example 24, 3-[2H,5H,6H,7H,8H-[1,3]Dioxolo[4,5-g]quinolin-5-yl]-2-(4-fluorophenyl)quinoxaline-6-carboxylic acid] | ≥ 5.00 |
| O=C(O)c1ccc2nc(-c3ccc(F)cc3)c(N3CCCc4c(F)cccc43)nc2c1 [Example 19] | ≥ 5.00 |
| COc1ccc2c(c1)N(c1nc3cc(C(=O)O)ccc3nc1-c1ccc(F)cc1)CCC2 [Example 22, 2-(4-Fluorophenyl)-3-(7-methoxy-1,2,3,4-tetrahydroquinolin-1-yl)quinoxaline-6-carboxylic acid] | ≥ 5.00 |
| O=C(O)c1ccc2nc(-c3ccc(F)cc3)c(N3CCCc4cc(Cl)ccc43)nc2c1 [Example 18, 3-(6-Chloro-1,2,3,4-tetrahydroquinolin-1-yl)-2-(4-fluorophenyl)quinoxaline-6-carboxylic acid] | ≥ 5.00 |
| CN(C)c1ccc2c(c1)CCCN2c1nc2cc(C(=O)O)ccc2nc1-c1ccc(F)cc1 [Example 17, 3-[6-(Dimethylamino)-1,2,3,4-tetrahydroquinolin-1-yl]-2-(4-fluorophenyl)quinoxaline-6-carboxylic acid] | ≥ 5.00 |
| O=C(O)c1ccc2nc(-c3cc4ccccc4o3)c(N3CCCc4ccccc43)nc2c1 [Example 2, 2-(Benzofuran-2-yl)-3-(1,2,3,4-tetrahydroquinolin-1(2H)-yl)quinoxaline-6-carboxylic acid] | ≥ 5.00 |
| CN(C)S(=O)(=O)c1ccc2c(c1)CCCN2c1nc2cc(C(=O)O)ccc2nc1-c1ccc(F)cc1 [Example 16, 3-[6-(Dimethylsulfamoyl)-1,2,3,4-tetrahydroquinolin-1-yl]-2-(4-fluorophenyl)quinoxaline-6-carboxylic acid] | ≥ 5.00 |
| COc1ccc2c(c1)CCCN2c1nc2cc(C(=O)O)ccc2nc1-c1cc2cc(F)ccc2o1 [Example 7, 2-(5-Fluoro-1-benzofuran-2-yl)-3-(6-methoxy-1,2,3,4-tetrahydroquinolin-1-yl)quinoxaline-6-carboxylic acid] | ≥ 5.00 |
| COc1ccc2c(c1)CCCN2c1nc2cc(C(=O)O)ccc2nc1-c1ccc(F)cc1 [Example 5, 2-(4-Fluorophenyl)-3-(6-methoxy-1,2,3,4-tetrahydroquinolin-1-yl)quinoxaline-6-carboxylic acid] | ≥ 5.00 |
| NC(=O)c1ccc2c(c1)CCCN2c1nc2cc(C(=O)O)ccc2nc1-c1ccc(F)cc1 [Example 14, 3-(6-Carbamoyl-1,2,3,4-tetrahydroquinolin-1-yl)-2-(4-fluorophenyl)quinoxaline-6-carboxylic acid] | ≥ 5.00 |
| O=C(O)c1ccc2nc(-c3ccc(F)cc3)c(N3CCCc4ccc(F)cc43)nc2c1 [Example 23, 3-(7-Fluoro-1,2,3,4-tetrahydroquinolin-1-yl)-2-(4-fluorophenyl)quinoxaline-6-carboxylic acid] | ≥ 5.00 |
| O=C(O)c1ccc2nc(-c3cc4cc(F)ccc4o3)c(N3CCCc4ccccc43)nc2c1 [Example 3, 3-(1,2,3,4-Tetrahydroquinolin-1(2H)-yl)-2-(5-fluorobenzofuran-2-yl)quinoxaline-6-carboxylic acid] | ≥ 5.00 |
